Measurements as given in ChEMBL document CHEMBL4673219, “Novel 5,6-disubstituted pyrrolo[2,3-d]pyrimidine derivatives as broad spectrum antiproliferative agents: Synthesis, cell based assays, kinase profile and molecular docking study” (Bioorg Med Chem, 2018).

Columns and labels:
[1] = system: BT-549; test: Growth inhibition of human BT-549 cells assessed as growth percentage at 10 uM incubated for 48 hrs by sulforhodamine B assay relative to control; assay type: functional; details: read-out: Activity
[2] = system: A498; test: Growth inhibition of human A498 cells assessed as growth percentage at 10 uM incubated for 48 hrs by sulforhodamine B assay relative to control; assay type: functional; details: read-out: Activity
[3] = system: 786-0; test: Growth inhibition of human 786-0 cells assessed as growth percentage at 10 uM incubated for 48 hrs by sulforhodamine B assay relative to control; assay type: functional; details: read-out: Activity
[4] = system: UACC-62; test: Growth inhibition of human UACC-62 cells assessed as growth percentage at 10 uM incubated for 48 hrs by sulforhodamine B assay relative to control; assay type: functional; details: read-out: Activity
[5] = system: HOP-62; test: Growth inhibition of human HOP-62 cells assessed as growth percentage at 10 uM incubated for 48 hrs by sulforhodamine B assay relative to control; assay type: functional; details: read-out: Activity
[6] = system: A549; test: Growth inhibition of human A549/ATCC cells assessed as growth percentage at 10 uM incubated for 48 hrs by sulforhodamine B assay relative to control; assay type: functional; details: read-out: Activity
[7] = molecular target: Fibroblast growth factor receptor 2 (Homo sapiens) (UniProt P21802); test: Inhibition of human FGFR2 at 10 uM using myelin basic protein as substrate incubated for 40 mins in presence of [gamma33P]ATP by scintillation counting method relative to control
[8] = system: PC-3; test: Growth inhibition of human PC-3 cells incubated for 48 hrs by sulforhodamine B assay; assay type: functional; details: for CC50: read-out: LC50 (the source's name)
[9] = system: SF-295; test: Growth inhibition of human SF-295 cells incubated for 48 hrs by sulforhodamine B assay; assay type: functional
[10] = system: SK-BR-3; test: Antiproliferative activity against human SK-BR-3 cells assessed as cell growth inhibition at 10 uM measured after 72 hrs by MTT assay relative to control; assay type: functional; details: read-out: GI
[11] = system: CAKI-1; test: Growth inhibition of human CAKI-1 cells assessed as growth percentage at 100 uM incubated for 48 hrs by sulforhodamine B assay relative to control; assay type: functional; details: read-out: Activity
[12] = system: SK-OV-3; test: Growth inhibition of human SK-OV-3 cells assessed as growth percentage at 100 uM incubated for 48 hrs by sulforhodamine B assay relative to control; assay type: functional; details: read-out: Activity
[13] = system: IGROV-1; test: Growth inhibition of human IGROV-1 assessed as growth percent at 100 uM incubated for 48 hrs by sulforhodamine B assay relative to control; assay type: functional; details: read-out: Activity
[14] = system: SW-620; test: Growth inhibition of human SW-620 cells assessed as growth percentage at 100 uM incubated for 48 hrs by sulforhodamine B assay relative to control; assay type: functional; details: read-out: Activity
[15] = system: KM12; test: Growth inhibition of human KM12 cells assessed as growth percentage at 100 uM incubated for 48 hrs by sulforhodamine B assay relative to control; assay type: functional; details: read-out: Activity
[16] = system: HCT-15; test: Growth inhibition of human HCT-15 cells assessed as growth percentage at 100 uM incubated for 48 hrs by sulforhodamine B assay relative to control; assay type: functional; details: read-out: Activity
[17] = system: NCI-H226; test: Growth inhibition of human NCI-H226 cells assessed as growth percentage at 100 uM incubated for 48 hrs by sulforhodamine B assay relative to control; assay type: functional; details: read-out: Activity
[18] = system: HOP-92; test: Growth inhibition of human HOP-92 cells assessed as growth percentage at 100 uM incubated for 48 hrs by sulforhodamine B assay relative to control; assay type: functional; details: read-out: Activity
[19] = system: MOLT-4; test: Growth inhibition of human MOLT-4 cells assessed as growth percentage at 100 uM incubated for 48 hrs by sulforhodamine B assay relative to control; assay type: functional; details: read-out: Activity
[20] = system: BT-549; test: Growth inhibition of human BT-549 cells assessed as growth percentage at 1 uM incubated for 48 hrs by sulforhodamine B assay relative to control; assay type: functional; details: read-out: Activity
[21] = system: Hs-578T; test: Growth inhibition of human Hs-578T cells assessed as growth percentage at 1 uM incubated for 48 hrs by sulforhodamine B assay relative to control; assay type: functional; details: read-out: Activity
[22] = system: MDA-MB-231; test: Growth inhibition of human MDA-MB-231/ATCC cells assessed as growth percentage at 1 uM incubated for 48 hrs by sulforhodamine B assay relative to control; assay type: functional; details: read-out: Activity
[23] = system: TK-10; test: Growth inhibition of human TK-10 cells assessed as growth percentage at 1 uM incubated for 48 hrs by sulforhodamine B assay relative to control; assay type: functional; details: read-out: Activity
[24] = system: RXF 393; test: Growth inhibition of human RXF 393 cells assessed as growth percentage at 1 uM incubated for 48 hrs by sulforhodamine B assay relative to control; assay type: functional; details: read-out: Activity
[25] = system: A498; test: Growth inhibition of human A498 cells assessed as growth percentage at 1 uM incubated for 48 hrs by sulforhodamine B assay relative to control; assay type: functional; details: read-out: Activity
[26] = system: LOX IMVI; test: Growth inhibition of human LOX IMVI cells assessed as growth percentage at 1 uM incubated for 48 hrs by sulforhodamine B assay relative to control; assay type: functional; details: read-out: Activity
[27] = system: U-251; test: Growth inhibition of human U-251 cells assessed as growth percentage at 1 uM incubated for 48 hrs by sulforhodamine B assay relative to control; assay type: functional; details: read-out: Activity
[28] = system: SNB-19; test: Growth inhibition of human SNB-19 cells assessed as growth percentage at 1 uM incubated for 48 hrs by sulforhodamine B assay relative to control; assay type: functional; details: read-out: Activity
[29] = system: A549; test: Growth inhibition of human A549/ATCC cells assessed as growth percentage at 1 uM incubated for 48 hrs by sulforhodamine B assay relative to control; assay type: functional; details: read-out: Activity
[30] = system: 786-0; test: Growth inhibition of human 786-0 cells assessed as growth percentage at 0.1 uM incubated for 48 hrs by sulforhodamine B assay relative to control; assay type: functional; details: read-out: Activity
[31] = system: SK-OV-3; test: Growth inhibition of human SK-OV-3 cells assessed as growth percentage at 0.1 uM incubated for 48 hrs by sulforhodamine B assay relative to control; assay type: functional; details: read-out: Activity
[32] = system: MDA-MB-435; test: Growth inhibition of human MDA-MB-435 cells assessed as growth percentage at 0.1 uM incubated for 48 hrs by sulforhodamine B assay relative to control; assay type: functional; details: read-out: Activity
[33] = system: SNB-75; test: Growth inhibition of human SNB-75 cells assessed as growth percentage at 0.1 uM incubated for 48 hrs by sulforhodamine B assay relative to control; assay type: functional; details: read-out: Activity
[34] = system: CCRF-CEM; test: Growth inhibition of human CCRF-CEM cells assessed as growth percentage at 0.1 uM incubated for 48 hrs by sulforhodamine B assay relative to control; assay type: functional; details: read-out: Activity
[35] = system: PC-3; test: Growth inhibition of human PC-3 cells assessed as growth percentage at 0.01 uM incubated for 48 hrs by sulforhodamine B assay relative to control; assay type: functional; details: read-out: Activity
[36] = system: 786-0; test: Growth inhibition of human 786-0 cells assessed as growth percentage at 0.01 uM incubated for 48 hrs by sulforhodamine B assay relative to control; assay type: functional; details: read-out: Activity
[37] = system: NCI/ADR-RES; test: Growth inhibition of human NCI/ADR-RES cells assessed as growth percentage at 0.01 uM incubated for 48 hrs by sulforhodamine B assay relative to control; assay type: functional; details: read-out: Activity
[38] = system: NCI-H322M; test: Growth inhibition of human NCI-H322M cells assessed as growth percentage at 0.01 uM incubated for 48 hrs by sulforhodamine B assay relative to control; assay type: functional; details: read-out: Activity
[39] = system: NCI-H226; test: Growth inhibition of human NCI-H226 cells assessed as growth percentage at 0.01 uM incubated for 48 hrs by sulforhodamine B assay relative to control; assay type: functional; details: read-out: Activity

Sequence of Fibroblast growth factor receptor 2 (Homo sapiens) (P21802 22-821 limits assumed): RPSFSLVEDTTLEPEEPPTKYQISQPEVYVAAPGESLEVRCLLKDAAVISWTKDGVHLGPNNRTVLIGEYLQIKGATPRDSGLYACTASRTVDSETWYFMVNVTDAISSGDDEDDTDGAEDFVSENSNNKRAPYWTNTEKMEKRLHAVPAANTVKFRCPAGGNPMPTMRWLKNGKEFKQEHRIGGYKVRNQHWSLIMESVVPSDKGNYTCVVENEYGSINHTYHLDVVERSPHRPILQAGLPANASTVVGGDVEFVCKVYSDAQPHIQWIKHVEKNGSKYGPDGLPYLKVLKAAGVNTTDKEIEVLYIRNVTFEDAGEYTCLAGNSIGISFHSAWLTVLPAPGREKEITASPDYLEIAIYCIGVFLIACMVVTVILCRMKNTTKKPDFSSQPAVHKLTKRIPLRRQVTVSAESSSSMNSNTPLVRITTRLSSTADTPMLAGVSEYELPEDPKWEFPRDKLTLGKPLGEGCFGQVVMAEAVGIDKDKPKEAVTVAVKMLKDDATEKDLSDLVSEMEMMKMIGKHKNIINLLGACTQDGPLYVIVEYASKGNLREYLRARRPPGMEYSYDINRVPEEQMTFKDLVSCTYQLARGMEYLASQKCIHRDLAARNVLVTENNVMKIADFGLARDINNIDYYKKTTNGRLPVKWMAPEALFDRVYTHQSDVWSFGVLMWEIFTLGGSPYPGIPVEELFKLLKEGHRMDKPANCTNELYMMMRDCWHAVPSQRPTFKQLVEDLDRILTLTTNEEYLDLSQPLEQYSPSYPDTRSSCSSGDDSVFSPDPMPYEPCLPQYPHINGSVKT

Nc1nc2[nH]c(CN3CCN(c4cc(Cl)cc(Cl)c4)CC3)c(CN3CCN(c4cc(Cl)cc(Cl)c4)CC3)c2c(=O)[nH]1
growth at 10 µM [1]: 87% | growth at 10 µM [2]: 64.4% | growth at 10 µM [3]: 72.6% | growth at 10 µM [4]: 77.8% | growth at 10 µM [5]: 84.2% | growth at 10 µM [6]: 72.7% | inhibition [7]: -0.49% | GI50 [8]: 1760 nM | TGI [8]: 3890 nM | CC50 [8]: 8610 nM | GI50 [9]: 1820 nM | TGI [9]: 3900 nM | inhibition of growth at 10 µM [10]: 90% | growth at 100 µM [11]: -97% | growth at 100 µM [12]: -74% | growth at 100 µM [13]: -48% | growth at 100 µM [14]: -79% | growth at 100 µM [15]: -84% | growth at 100 µM [16]: -49% | growth at 100 µM [17]: -25% | growth at 100 µM [18]: -72% | growth at 100 µM [19]: -7% | growth at 1 µM [20]: 85% | growth at 1 µM [21]: 84% | growth at 1 µM [22]: 101% | growth at 1 µM [23]: 100% | growth at 1 µM [24]: 85% | growth at 1 µM [25]: 75% | growth at 1 µM [26]: 104% | growth at 1 µM [27]: 90% | growth at 1 µM [28]: 89% | growth at 1 µM [29]: 92% | growth at 0.1 µM [30]: 93% | growth at 0.1 µM [31]: 103% | growth at 0.1 µM [32]: 97% | growth at 0.1 µM [33]: 89% | growth at 0.1 µM [34]: 98% | growth at 0.01 µM [35]: 97% | growth at 0.01 µM [36]: 94% | growth at 0.01 µM [37]: 101% | growth at 0.01 µM [38]: 102% | growth at 0.01 µM [39]: 95%

CCCCCCCC(=O)Nc1nc2[nH]c(CN3CCN(Cc4cccc(F)c4)CC3)c(CN3CCN(Cc4cccc(F)c4)CC3)c2c(=O)[nH]1
growth at 10 µM [1]: 29% | growth at 10 µM [2]: 61.6% | growth at 10 µM [3]: -100% | growth at 10 µM [4]: -93.9% | growth at 10 µM [5]: -93.2% | growth at 10 µM [6]: -74.7% | inhibition [7]: 25.9% | GI50 [8]: 1300 nM | TGI [8]: 2670 nM | CC50 [8]: 5470 nM | GI50 [9]: 1410 nM | LC50 [9]: 5790 nM | TGI [9]: 2850 nM | inhibition of growth at 10 µM [10]: 93.1% | growth at 100 µM [11]: -96% | growth at 100 µM [12]: -99% | growth at 100 µM [13]: -70% | growth at 100 µM [14]: -69% | growth at 100 µM [15]: -47% | growth at 100 µM [16]: -85% | growth at 100 µM [17]: -94% | growth at 100 µM [18]: -95% | growth at 100 µM [19]: -7% | growth at 1 µM [20]: 63% | growth at 1 µM [21]: 61% | growth at 1 µM [22]: 33% | growth at 1 µM [23]: 94% | growth at 1 µM [24]: 29% | growth at 1 µM [25]: 66% | growth at 1 µM [26]: -58% | growth at 1 µM [27]: -88% | growth at 1 µM [28]: 82% | growth at 1 µM [29]: 8% | growth at 0.1 µM [30]: 92% | growth at 0.1 µM [31]: 94% | growth at 0.1 µM [32]: 90% | growth at 0.1 µM [33]: 82% | growth at 0.1 µM [34]: 94% | growth at 0.01 µM [35]: 98% | growth at 0.01 µM [36]: 98% | growth at 0.01 µM [37]: 100% | growth at 0.01 µM [38]: 94% | growth at 0.01 µM [39]: 94%
